A short description of this test: The compound was tested at a concentration of 1 uM for inhibitory activity against 17 beta-hydroxysteroid dehydrogenase from human placental microsomes.

By inhibition is commonly meant the relative decrease from the control value, in per cent. The compound `C[C@]12CC[C@@H]3c4ccc(O)cc4CC[C@H]3[C@@H]1CC[C@@]21CCC(=O)O1` came in with an inhibition of 81%.
Next, `COc1ccc2c(c1)CC[C@@H]1[C@@H]2CC[C@@]2(C)[C@H]1CC[C@@]21CCC(=O)O1`: 55%; `C[C@]12CC[C@@H]3c4ccc(OCc5ccccc5)cc4CC[C@H]3[C@@H]1CC[C@@]21CCC(=O)O1`: 11%; `C[C@]12CCC(=O)C=C1CC[C@@H]1[C@@H]2CC[C@@]2(C)[C@H]1CC[C@@]21CCC(=O)O1`: 3%.
In turn, `C[C@]12C=CC(=O)C=C1CCC1C2CC[C@@]2(C)C1CC[C@@]21CCC(=O)O1` (some centres undefined) registered an inhibition of 6%.
As to `C[C@]12CCC(=O)CC1CC[C@@H]1[C@@H]2CC[C@@]2(C)[C@H]1CC[C@@]21CCC(=O)O1` (some centres undefined), the inhibition was 25%.
As for `C[C@]12CC[C@@]3(CCC(=O)O3)CC1CC[C@@H]1[C@@H]2CC[C@@]2(C)[C@H]1CC[C@@]21CCC(=O)O1` (some centres undefined), the inhibition turned out to be 11%.
Next, `C[C@]12CCC(=O)CC1C(=O)C[C@@H]1[C@@H]2CC[C@@]2(C)[C@H]1CC[C@@]21CCC(=O)O1` (some centres undefined): 28%.
Next, `C[C@]12CCC(=O)C=C1C(=O)CC1C2CC[C@@]2(C)C1CC[C@@]21CCC(=O)O1` (some centres undefined): 3%.
